Measured values from patent US9133194B2, “Cyclic tripeptide mimetics as plasmin inhibitors” (priority 2011, dated 2015).
Like-named read-outs stand apart in the source and are kept apart here.

Tests used:
plasmin = plasmin (Homo sapiens, UniProt P00747); experiment: Enzyme-kinetic determination of inhibition constants, plasmin (Chromozym PL); assay type: biochemical
From the text: (§1) The Ki values are the mean value of at least two determinations.

Factor Xa (human) = Factor Xa (human) (Homo sapiens, UniProt P00742); experiment: Enzyme-kinetic determination of inhibition constants, factor Xa (Pefachrome FXa); assay type: biochemical; settings: Tris-HCl buffer pH 8.0, Dixon, mean of at least two determinations
Sequence of Factor Xa (human) (P00742 235-488 limits assumed): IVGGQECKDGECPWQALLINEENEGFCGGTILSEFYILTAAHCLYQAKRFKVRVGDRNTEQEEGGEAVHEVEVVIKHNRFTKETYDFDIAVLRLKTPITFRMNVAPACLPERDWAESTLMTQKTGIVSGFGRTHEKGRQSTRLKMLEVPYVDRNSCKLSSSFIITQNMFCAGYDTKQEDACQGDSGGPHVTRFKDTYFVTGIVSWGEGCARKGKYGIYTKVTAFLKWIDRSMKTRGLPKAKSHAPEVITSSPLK
Sequence of Factor Xa (human) (P00742 41-179 partner limits assumed): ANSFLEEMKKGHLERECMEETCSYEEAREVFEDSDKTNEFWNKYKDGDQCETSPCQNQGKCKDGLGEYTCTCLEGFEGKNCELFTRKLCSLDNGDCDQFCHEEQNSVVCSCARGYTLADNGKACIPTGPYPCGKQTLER
From the text: as §1

plasma kallikrein = plasma kallikrein (Homo sapiens, UniProt P03952); experiment: Enzyme-kinetic determination of inhibition constants, plasma kallikrein (Haemochrom PK); assay type: biochemical; settings: Tris-HCl buffer pH 8.0, Dixon, mean of at least two determinations
Sequence of plasma kallikrein (P03952 391-638 limits assumed): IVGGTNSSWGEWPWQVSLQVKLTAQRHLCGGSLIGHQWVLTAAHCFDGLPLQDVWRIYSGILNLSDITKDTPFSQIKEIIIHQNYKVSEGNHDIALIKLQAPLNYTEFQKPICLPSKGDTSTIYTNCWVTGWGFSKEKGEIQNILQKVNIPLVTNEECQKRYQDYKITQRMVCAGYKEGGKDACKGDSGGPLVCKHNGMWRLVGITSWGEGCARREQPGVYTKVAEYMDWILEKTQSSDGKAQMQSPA
Sequence of plasma kallikrein (P03952 20-390 partner limits assumed): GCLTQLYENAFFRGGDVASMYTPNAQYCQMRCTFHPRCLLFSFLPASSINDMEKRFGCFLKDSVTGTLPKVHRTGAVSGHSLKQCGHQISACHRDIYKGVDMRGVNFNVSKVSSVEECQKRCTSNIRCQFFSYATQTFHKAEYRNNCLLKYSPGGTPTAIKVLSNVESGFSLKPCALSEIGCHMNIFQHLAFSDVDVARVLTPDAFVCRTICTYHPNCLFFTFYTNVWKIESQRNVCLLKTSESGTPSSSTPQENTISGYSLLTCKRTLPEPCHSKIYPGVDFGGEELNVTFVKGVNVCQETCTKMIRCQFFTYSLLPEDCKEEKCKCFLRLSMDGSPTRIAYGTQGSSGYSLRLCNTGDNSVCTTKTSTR
From the text: as §1

Thrombin (bovine) = Thrombin (bovine) (Bos taurus, UniProt P00735); experiment: Enzyme-kinetic determination of inhibition constants, thrombin (Pefachrome tPA); assay type: biochemical; settings: Tris-HCl buffer pH 8.0, Dixon, mean of at least two determinations
From the text: as §1

[1] = cited from earlier work
trypsin = settings: background, aprotinin; read-out: K for trypsin; cited from earlier work
[2] = Tris-HCl buffer pH 8.0, Dixon, mean of at least two determinations, read-out: Ki Plasmin

Sequence of plasmin (P00747 581-810 limits assumed): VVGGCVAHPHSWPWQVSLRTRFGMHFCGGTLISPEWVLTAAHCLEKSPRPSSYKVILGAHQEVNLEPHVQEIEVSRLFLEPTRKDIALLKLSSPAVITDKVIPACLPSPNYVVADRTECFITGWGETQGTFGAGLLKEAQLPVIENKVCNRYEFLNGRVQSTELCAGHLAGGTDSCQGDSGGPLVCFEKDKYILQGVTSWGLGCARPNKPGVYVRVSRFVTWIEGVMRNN
Sequence of plasmin (P00747 97-580 partner limits assumed): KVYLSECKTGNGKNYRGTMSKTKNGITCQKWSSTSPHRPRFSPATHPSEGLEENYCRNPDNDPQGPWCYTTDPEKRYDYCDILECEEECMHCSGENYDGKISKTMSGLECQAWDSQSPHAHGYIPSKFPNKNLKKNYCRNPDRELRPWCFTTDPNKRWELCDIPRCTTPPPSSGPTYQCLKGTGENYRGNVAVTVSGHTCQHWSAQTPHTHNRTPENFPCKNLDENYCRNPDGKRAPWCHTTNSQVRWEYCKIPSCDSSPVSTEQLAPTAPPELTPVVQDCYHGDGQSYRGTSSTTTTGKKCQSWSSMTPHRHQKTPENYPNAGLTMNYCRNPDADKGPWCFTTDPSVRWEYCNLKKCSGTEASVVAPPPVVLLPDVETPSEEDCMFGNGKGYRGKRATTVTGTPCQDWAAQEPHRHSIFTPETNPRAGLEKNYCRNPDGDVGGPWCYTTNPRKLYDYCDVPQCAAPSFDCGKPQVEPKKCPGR

Compound: N=C(N)c1ccc(CNC(=O)[C@@H]2Cc3ccc(cc3)NC(=O)CCN3CCN(CCC(=O)Nc4ccc(cc4)C[C@@H](NS(=O)(=O)NC4CCCCC4)C(=O)N2)CC3)cc1 [Inhibitor 1]
- Ki (plasmin): 0.052 nM
- Ki (Factor Xa (human)): 7.4 µM
- Ki (plasma kallikrein): 0.6 µM
- Ki (Thrombin (bovine)): 17 µM

Compound: N=C(N)c1ccc(CNC(=O)[C@@H]2Cc3ccc(cc3)NC(=O)CN3CCN(CC3)CC(=O)Nc3ccc(cc3)C[C@@H](NS(=O)(=O)NC3CCCCC3)C(=O)N2)cc1 [Inhibitor 2]
- Ki (plasmin): 0.32 nM
- Ki (Factor Xa (human)): 7.9 µM
- Ki (plasma kallikrein): 0.319 µM
- Ki (Thrombin (bovine)): 16 µM

Compound: NCc1ccc(CNC(=O)[C@@H]2Cc3ccc(cc3)NC(=O)CCN3CCN(CCC(=O)Nc4ccc(cc4)C[C@@H](NS(=O)(=O)Cc4ccccc4)C(=O)N2)CC3)cc1 [Inhibitor 3]
- Ki (plasmin): 1.24 nM
- Ki (Factor Xa (human)): 78 µM
- Ki (plasma kallikrein): 6.38 µM
- Ki (Thrombin (bovine)): 141 µM

Compound: N=C(N)c1ccc(CNC(=O)[C@@H]2Cc3ccc(cc3)NC(=O)CCN3CCN(CCC(=O)Nc4ccc(cc4)C[C@@H](NC(=O)Cc4ccccc4)C(=O)N2)CC3)cc1 [Inhibitor 4]
- Ki (plasmin; [2]): 8 nM
- Ki (Factor Xa (human)): 188 µM
- Ki (plasma kallikrein): 7.92 µM
- Ki (Thrombin (bovine)): 41.8 µM

Compound: N=C(N)c1ccc(CNC(=O)[C@@H]2Cc3ccc(cc3)NC(=O)CCN3CCN(CCC(=O)Nc4ccc(cc4)C[C@@H](NC(=O)OCc4ccccc4)C(=O)N2)CC3)cc1 [Inhibitor 5]
- Ki (plasmin; [2]): 0.77 nM
- Ki (Factor Xa (human)): 47.4 µM
- Ki (plasma kallikrein): 6.95 µM
- Ki (Thrombin (bovine)): 44 µM

Compound: N=C(N)c1ccc(CNC(=O)[C@@H]2Cc3ccc(cc3)NC(=O)CCN3CCN(CCC(=O)Nc4ccc(cc4)C[C@@H](N)C(=O)N2)CC3)cc1 [Inhibitor 6]
- Ki (plasmin): 12.8 nM
- Ki (Factor Xa (human)): 405 µM
- Ki (plasma kallikrein): 24.5 µM
- Ki (Thrombin (bovine)): 60.8 µM

Compound: CC1(C)C(=O)Nc2ccc(cc2)C[C@@H](C(=O)NCc2ccc(C(=N)N)cc2)NC(=O)[C@H](NS(=O)(=O)Cc2ccccc2)Cc2ccc(cc2)NC(=O)C(C)(C)N2CCN1CC2 [Inhibitor 7]
- Ki (plasmin; [2]): 2.2 nM
- Ki (Factor Xa (human)): 1.45 µM
- Ki (plasma kallikrein): 0.077 µM
- Ki (Thrombin (bovine)): 0.62 µM

Compound: N=C(N)c1ccc(CNC(=O)[C@@H]2Cc3ccc(cc3)NC(=O)CN3CCN(CC3)CC(=O)Nc3ccc(cc3)C[C@@H](NC(=O)OCc3ccccc3)C(=O)N2)cc1 [Inhibitor 11]
- Ki (plasmin; [2]): 5.4 nM
- Ki (Factor Xa (human)): 104 µM
- Ki (plasma kallikrein): 4.64 µM
- Ki (Thrombin (bovine)): 46.9 µM

Compound: N=C(N)NCCCCNC(=O)[C@@H]1Cc2ccc(cc2)NC(=O)CCN2CCN(CCC(=O)Nc3ccc(cc3)C[C@@H](NS(=O)(=O)NC3CCCCC3)C(=O)N1)CC2 [Inhibitor 13]
- Ki (plasmin; [2]): 3.5 nM

Compound: CN(C)S(=O)(=O)N[C@@H]1Cc2ccc(cc2)NC(=O)CN2CCN(CC2)CC(=O)Nc2ccc(cc2)C[C@@H](C(=O)NCc2ccc(C(=N)N)cc2)NC1=O [Inhibitor 14]
- Ki (plasmin): 5.9 nM
- Ki (Factor Xa (human)): 134 µM
- Ki (plasma kallikrein): 12 µM
- Ki (Thrombin (bovine)): 4.96 µM

Compound: aprotinin
- risk of an anaphylactic shock ([1]; aprotinin applied for the first time): < 0.1%
- risk of myocardial infarction and apoplectic stroke ([1]; compared to the control groups): increased
- number of cases of kidney damage requiring subsequent dialysis ([1]; comparison with ε-aminocaproic acid or tranexamic acid (Mangano et al.)): doubling
- risk of an anaphylactic shock ([1]; repeated administration within 200 days): 4-5%
- Ki (trypsin): 0.0001 µM
